We go through five molecules from patent publication US7402417B2, “P450 oxygenases and methods of use” (Washington State University Research Foundation, priority 2003, dated 2008).

For one assay, the system named is 5α-hydroxylase. The following applies: 100 μM inhibitor; cited from earlier work.
In assay [1] the target is T1, recombinant taxoid 5α-hydroxylase (clone S1) (Taxus cuspidata, UniProt Q6WG30).
T1 construct: the S1 ORF was amplified using Pfu DNA polymerase and gene-specific primers containing a BamHI site immediately upstream of the start codon; made in house; host or cells: Spodoptera frugiperda Sf9 cells (baculovirus, pFastBac1); microsomal membranes
As to the kind of experiment: Substrate binding spectra with Sf9 microsomes enriched in recombinant 5α-hydroxylase. As to conditions: no NADPH. The protocol:
Microsomes from S. frugiperda cells enriched with 200 pmol recombinant taxoid 5α-hydroxylase (clone S1) were employed. Taxa-4(20),11(12)-diene was assayed over a concentration range from 0.1 to 10 μM, and a binding constant (Ks) of 4±1 μM was determined (upper graph). Taxa-4(5),11(12)-diene was assayed over a concentration range of 0.1 to 20 μM and a binding constant (Ks) of 6.5±1.5 μM was determined (lower graph).
Binding spectra for both taxadiene isomers (in the absence of NADPH) were then recorded using the Sf9 cell microsomes enriched in the recombinant 5α-hydroxylase. Substrate binding spectra were obtained as described by Schenkin and Jausson, Methods Mol. Biol. (Cytochrome P450 Protocols), 107:25-33, 1998) using a Perkin-Elmer Lambda 18 spectrophotometer (Haudenschild et al., Arch. Biochem. Biophys., 379:127-136, 2000). Substrate binding spectra were recorded with up to 200 pmol of recombinant microsomal cytochrome P450 enzyme (as determined by CO-difference spectral analysis) per cuvette in 100 mM sodium phosphate buffer at pH 7.5. In preparation for binding studies, the taxadiene isomers were each dissolved in DMSO and 1 μl additions to the sample were made to a final concentration of 1.5% (v/v). For data analysis, Spectrum for Windows (Perkin-Elmer Corp., Wellesey, Mass.) and Sigmaplot 7.0 (SPSS Inc., Chicago, Ill.) were employed and experiments were run in triplicate.

Assay [2] concerns microsomal 5α-hydroxylase activity. As to the kind of experiment: Kinetic evaluation with Taxus suspension cell microsomes (radio-HPLC, total product). It counts as biochemical, Taxus media hicksii. The following applies: T. media suspension cell microsomes, [20-3H] substrate. The method, then:
Preparation of Taxus suspension cell microsomes and assays for microsomal 5α-hydroxylase activity were carried out as previously described (Hefner et al., Chem. Biol., 3:479489, 1996; Lovy Wheeler et al., Arch. Biochem. Biophys., 390:265-278, 2001) with the following modifications: Unelicited Taxus media hicksii cells were harvested 14 days after transfer, separated from the media, frozen in liquid N2 and ground to a fine powder with a mortar and pestle, with extraction and microsome preparation as described by Lovy Wheeler et al. (Arch. Biochem. Biophys., 390:265-278, 2001). The previously described radio-HPLC-based assay (Lovy Wheeler et al., Arch. Biochem. Biophys., 390:265-278, 2001) was employed to separate the substrate from taxadien-5α-ol and polyols derived therefrom which were summed as “total product” for the purpose of rate determination.
Following the confirmation of linear reaction conditions in protein concentration and time, kinetic constants were determined for both [20-3H]taxa-4(5),11(12)-diene and [20-3H]taxa-4(20),11(12)-diene with the optimized assay (Hefner et al., Chem. Biol., 3:479-489, 1996). The radio-HPLC-based assay previously described by Lovy Wheeler et al. (Arch. Biochem. Biophys., 390:265-278, 2001) was employed to permit summing of taxadien-polyols derived subsequently from the initially formed taxadienol product generated by this microsomal system that contains all of the downstream cytochrome P450 taxoid oxygenases of the pathway (Lovy Wheeler et al., Arch. Biochem. Biophys., 390:265-278, 2001).
Thus, one or more constituents of the crude Taxus microsomal protein preparation catalyze the reaction of taxa-4(5),11(12)-diene and taxa-4(20),11(12)-diene to the corresponding taxadienols.

Assay [3] has as its target T1, recombinant taxoid 5α-hydroxylase (clone S1). As to the kind of experiment: Kinetic evaluation with Sf9 microsomes enriched in recombinant 5α-hydroxylase (radio-HPLC, Michaelis-Menten). The assay is classed as biochemical. The following applies: recombinant enzyme, 200 μM NADPH plus regenerating system. The protocol: Kinetic constants for both isomers were next evaluated (at a saturating 200 μM concentration of NADPH plus regenerating system; Shimada and Yamazai, Meth. Mol. Biol., 107:85-93, 1998). The isolated microsomes were resuspended in 50 mM Hepes, pH 7.5, containing 1 mM DTT and 5% (v/v) glycerol, and the 1 ml reactions (˜600 μg protein, 50 μM substrate dissolved in DMSO, and the requisite cofactors (e.g., NADPH plus regenerating system) were run as described previously, with the identical protocols for product analysis (Jennewein et al., Proc. Natl. Acad. Sci. USA, 98:13595-13600, 2001). DMSO was without influence on the reaction. For kinetic evaluation, following the establishment of linear reaction conditions in protein concentration and time, the response to substrate concentration was plotted by the Michaelis-Menten method (Sigmaplot 7.0) using the calibrated radio-HPLC protocol for product determination Data from three independent experiments were pooled and the line of best fit taken (R^2>0.99).

Assay [4] has as its system native microsomal 5α-hydroxylase. As to conditions: native microsome preparations from yew stem tissue, determined previously; cited from earlier work.
Assay [5] has as its system microsomal taxa-4(5),11(12)-diene isomerase activity. As to the kind of experiment: Assay for microsomal taxadiene isomerase activity and pH-dependent isomerization. It counts as biochemical. The following applies: Taxus or Spodoptera microsomes, no NADPH or no O2, or CO, miconazole, clotrimazole, boiled controls. The protocol: The assay for microsomal taxa-4(5),11(12)-diene isomerase activity (and the reverse isomerization) was carried out under standard cytochrome P450 oxygenase conditions but in the absence of NADPH or O2, or in the presence of inhibitory concentrations of CO, miconazole or clotrimazole (under conditions described previously for which the rate of 5α-hydroxylation is negligible (Hefner et al., Chem. Biol., 3:479489, 1996)). A number of additional, potential cofactors were also tested, including FAD, FADH2, FMN, FMNH2, NAD+, NADH and NADP+ (all at 2.5 mM), as well as MgCl2 (at 5.0 mM). The possibility of pH-dependent isomerization was tested by incubating each isomer (100 μM) in phosphate buffer (pH 4 to 10) for 12 hours at 31° C., with separation of isomers as described previously (Williams et al., Arch. Biochem. Biophys., 379:137-146, 2000).

A further assay concerns the target taxoid 5α-hydroxylase (Taxus cuspidata, UniProt Q6WG30). As to the kind of experiment: Kinetic evaluation of taxadiene isomers, average of recombinant and T. media microsomes (FIG. 4). It counts as biochemical. As to conditions: average of recombinant (Sf9) and T. media microsomes; substrate 1 to 500 μM. The method, then: Taxa-4(20),11(12)-diene (◯) and taxa-4(5),11(12)-diene (●) were evaluated with microsomes from S. formgiperda cells enriched with 50 pmol recombinant taxoid 5α-hydroxylase (A), and with microsomes from T. media suspension cells containing about 50 pmol of total native cytochrome P450 (B). Substrate Concentration range was varied from 1 to 500 μM in all cases.

Assay [6] deals with T2, clone S1 taxoid 5α-hydroxylase in Saccharomyces cerevisiae WAT11 (Taxus cuspidata, UniProt Q6WG30).
T2 construct: expressed in transfected cells; host or cells: Saccharomyces cerevisiae strain WAT11
As to the kind of experiment: In vivo feeding of labeled substrate to yeast expressing clone S1, radio-HPLC and GC-MS of products. As to conditions: 30 μM substrate. It counts as cell-based. The source says:
This in vivo feeding protocol eliminated the uncertainties associated with microsome isolation and in vitro assay, including the instability of P450 oxygenases in yeast membranes (Schoendorf et al., Proc. Nail. Acad. Sci. USA, 98:1501-1506, 2001).
Transformed and induced yeast cells were harvested by centrifugation as described in Example 2. As a negative control for the feeding experiments, the yeast host was transformed with the pYES2.1/V5-HIS-TOPO™ vector containing a β-glucuronidase insert instead of the cytochrome P450 S1 clone. The cells were resuspended in 3 ml of fresh YPLA medium to which 30 μM of the labeled test substrate was added. Test substrates included:
The cell and test substrate suspension was incubated overnight at 30° C. with mixing (250 rpm). The incubation mixture was then treated for 15 minutes in a sonication bath and extracted twice with 3 ml of hexane:ethyl acetate (4:1 v/v). The organic extract was then dried under N2, the residue dissolved in 100 μl of acetonitrile, and an aliquot was separated by reversed-phase radio-HPLC (250 mm×4.6 mm column of Alltech (Deerfield, Ill.) Econosil C18 (5 μm); flow rate of 1 ml/min; with radio-detection of the effluent (Flow-One-Beta Series A-1000, Radiomatic Corp., Meriden, Conn.)). The following gradient was employed: 0-5 minutes at 100% Solvent A (97.99% H2O with 2% CH3CN and 0.01% H3PO4 (v/v)), 5-15 minutes at 0-50% Solvent B (99.99% CH3CN with 0.01% H3PO4 (v/v)), 15-55 minutes at 50-100% Solvent B, 55-65 minutes at 100% Solvent B, 65-70 minutes at 0-100% Solvent A, 70-75 minutes at 100% Solvent A. The HPLC eluant was collected in 1 minute fractions and the appropriate fractions containing the radiolabeled product were combined, dried under a stream of N2, and dissolved in the minimum volume of benzene for GC-MS analysis.
GC-MS analyses were performed on a Hewlett-Packard 6890 GC-MSD system using a ZB-5 capillary column (Phenomenex (Torrance, Calif.); 30 m length; 0.25 mm inner diameter; coated with a 0.25 μm film of phenyl (5%) polysiloxane). Cool on-column injection was used, with He flow rate of 0.7 ml/min and a temperature program from 40° C. to 320° C. at 20° C./min. Spectra were recorded at 70 eV.

The target of the next assay is T3, taxoid 13α-hydroxylase (Taxus cuspidata, UniProt Q8W4T9).
T3 construct: expressed in transfected cells
As to the kind of experiment: Feeding to yeast that functionally express taxoid 13α-hydroxylase. It counts as cell-based. As to conditions: product of clone S1 enzyme fed to 13α-hydroxylase yeast. An excerpt:
The taxa-4(20),11(12)-dien-5α-ol radiolabeled product of the clone S1 enzyme was isolated by HPLC, and the purified material was fed to yeast that functionally express the previously characterized taxoid 13α-hydroxylase (Jennewein et al., Proc. Natl. Acad. Sci. USA, 98:13595-13600, 2001). As discussed above, 13α-hydroxylation of a paclitaxel intermediate is believed to follow 5α-hydroxylation in the paclitaxel biosynthetic pathway (Floss and Mocek, Taxol: Science and Applications, CRC Press, Boca Raton, 191-208, 1995; and Croteau et al., Curr. Top. Plant Physiol. 15:94-104, 1996). Thus, as expected, taxa-4(20),11(12)-dien-5α-ol was quantitatively converted to taxa-4(20),11(12)-dien-5α,13α-diol by the 13α-hydroxylase.

The mark [7] stands for this setting: FIG. 3, microsomes with 200 pmol recombinant enzyme, read-out: binding constant (Ks).
The mark [8] stands for this setting: over a 100-fold range of substrate concentrations, pH 7.5, read-out: substrate binding constant (Ks), variation.
[9] abbreviates: overnight at 30° C., radio-HPLC.

SMILES strings stand for the structures. Read-outs that look alike come from different tables or passages of the source.

T1 sequence (Q6WG30 with tags, fused parts or gaps): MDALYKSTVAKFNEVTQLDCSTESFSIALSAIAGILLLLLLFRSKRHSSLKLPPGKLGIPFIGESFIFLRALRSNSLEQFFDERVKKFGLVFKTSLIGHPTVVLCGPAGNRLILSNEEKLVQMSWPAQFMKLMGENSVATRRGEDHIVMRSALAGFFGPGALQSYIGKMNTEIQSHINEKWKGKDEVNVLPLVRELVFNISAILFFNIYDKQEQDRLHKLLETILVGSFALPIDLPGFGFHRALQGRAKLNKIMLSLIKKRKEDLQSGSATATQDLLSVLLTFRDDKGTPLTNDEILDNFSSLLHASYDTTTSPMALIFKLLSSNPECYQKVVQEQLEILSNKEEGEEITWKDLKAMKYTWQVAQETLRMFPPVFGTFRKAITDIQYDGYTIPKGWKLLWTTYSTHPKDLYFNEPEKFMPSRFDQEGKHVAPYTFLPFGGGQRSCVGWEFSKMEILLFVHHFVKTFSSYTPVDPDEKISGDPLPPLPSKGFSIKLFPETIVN
T2 sequence (Q6WG30 with tags, fused parts or gaps limits assumed): as the sequence (Q6WG30 with tags, fused parts or gaps) above
taxoid 5α-hydroxylase, sequence (Q6WG30 whole entry): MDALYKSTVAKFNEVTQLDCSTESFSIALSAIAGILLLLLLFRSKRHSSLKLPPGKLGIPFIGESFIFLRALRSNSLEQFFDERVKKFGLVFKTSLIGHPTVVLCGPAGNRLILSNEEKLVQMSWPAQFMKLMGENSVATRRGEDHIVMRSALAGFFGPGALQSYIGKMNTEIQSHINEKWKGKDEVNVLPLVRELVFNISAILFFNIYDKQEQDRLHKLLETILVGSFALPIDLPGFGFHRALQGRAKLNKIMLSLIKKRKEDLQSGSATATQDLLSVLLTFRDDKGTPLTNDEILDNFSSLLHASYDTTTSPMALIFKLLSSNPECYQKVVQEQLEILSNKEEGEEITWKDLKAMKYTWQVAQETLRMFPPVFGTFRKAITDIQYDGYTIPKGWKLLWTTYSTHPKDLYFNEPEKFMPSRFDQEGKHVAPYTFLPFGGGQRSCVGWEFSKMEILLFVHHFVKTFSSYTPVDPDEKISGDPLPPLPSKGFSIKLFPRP
T3 sequence (Q8W4T9 whole entry): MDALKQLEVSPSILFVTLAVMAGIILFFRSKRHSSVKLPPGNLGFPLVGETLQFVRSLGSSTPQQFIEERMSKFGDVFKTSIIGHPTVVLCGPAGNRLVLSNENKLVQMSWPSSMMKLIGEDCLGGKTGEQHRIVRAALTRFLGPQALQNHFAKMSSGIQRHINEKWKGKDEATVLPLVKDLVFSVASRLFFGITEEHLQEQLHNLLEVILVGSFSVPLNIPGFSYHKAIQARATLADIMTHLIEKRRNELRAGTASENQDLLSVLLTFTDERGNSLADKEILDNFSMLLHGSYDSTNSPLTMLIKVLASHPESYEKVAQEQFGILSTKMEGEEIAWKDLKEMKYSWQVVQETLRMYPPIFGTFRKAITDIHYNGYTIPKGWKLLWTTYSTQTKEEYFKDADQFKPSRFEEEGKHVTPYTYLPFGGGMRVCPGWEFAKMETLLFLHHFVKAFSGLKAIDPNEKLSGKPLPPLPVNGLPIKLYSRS

Regarding `Clc1ccc(COC(Cn2ccnc2)c2ccc(Cl)cc2Cl)c(Cl)c1` (stereo not shown) [miconazole], in the assay with 5α-hydroxylase, the “hydroxylation activity in the presence of the inhibitor” value was “negligible”.
Regarding `CC1=CCC[C@@]2(C)CCC3=C(C)CC[C@@H](C[C@H]12)C3(C)C` [taxa-4(5),11(12)-diene], the Kd was 6.5 ± 1.5 µM in assay [1] (setting [7]) and 5 to 8 µM in assay [1] (setting [8]). In addition, the Km in assay [2] is 48 µM; in assay [4], approximately 6 µM. In addition, the Vrel in assay [2] and in assay [3] was 100 throughout. Also, the “isomerization to the other taxadiene positional isomer” value in assay [5] is “No isomerization”; in assay [5] (listed as 3) it was “not observed”. Further, the “Vrel (average)” value at taxoid 5α-hydroxylase stood at 100. Also, the “conversion to more polar products” value in assay [6] (setting [9]) is given as “almost quantitatively”. In addition, the “share of minor product taxadien-diol” value in assay [6] (setting [9]) is on record as less than 50%. The “share of principal product taxa-4(20),11(12)-dien-5α-ol” value in [6] (setting [9]) is recorded as more than 92%.
With `Clc1ccccc1C(c1ccccc1)(c1ccccc1)n1ccnc1` [clotrimazole], the “hydroxylation activity in the presence of the inhibitor” value with 5α-hydroxylase is on record as “negligible”.
In the case of `C=C1CCC[C@@]2(C)CCC3=C(C)CC[C@@H](C[C@H]12)C3(C)C` [taxa-4(20),11(12)-diene], the Kd in [1] (setting [7]) came to 4 ± 1 µM. In addition, in assay [1] (setting [8]), the Kd lay in the range of 3 to 5 µM. Moreover, in assay [2], the Km turned out to be 27 µM and the Vrel came to 150. For the same molecule, the Vrel in assay [3] is 120. In addition, the “isomerization to the other taxadiene positional isomer” value in assay [5] is recorded as “No isomerization”. Besides, the “Vrel (average)” value at taxoid 5α-hydroxylase was 135. Moreover, in assay [6] (setting [9]), the “share of minor product taxadien-diol” value is given as approximately 8% and the “share of principal product taxa-4(20),11(12)-dien-5α-ol” value is reported as approximately 90%. For the same molecule, the “share of other minor metabolites in product mix” value in [6] (also formed in negative control) was approximately 2%.
In the case of `C=C1[C@H]2C[C@@H]3CCC(C)=C(CC[C@]2(C)CC[C@@H]1O)C3(C)C` [taxa-4(20),11(12)-dien-5α-ol], the “conversion to taxa-4(20),11(12)-dien-5α,13α-diol” value at taxoid 13α-hydroxylase is given as “quantitatively”.

Usually Km stands for the substrate concentration at which the rate is half of its maximum.
